According to patent US10260108B2, “PARP genomic variants conferring resistance and sensitization to chemotherapy under inhibition” (University of Pittsburgh—Of the Commonwealth System of …, priority 2014, dated 2019):

What was measured:
[1] = tested on: NCI-60 cell lines; assay: NCI-60 […] IC50 values, cell lines with rs1805407 vs wild type; type: cell-based; conditions: NCI60 IC50 values, C/T or C/C (n=23) vs T/T (n=37)
Excerpt: Given that TMZ damages the DNA and PARP1 has a critical role in DNA repair, one plausible hypothesis is that rs1805407 is either associated with increased PARP1 activity or decreased PARP1 trapping after treatment with alkylating agents (Murai J, et al. (2012) Cancer Res 72(21):5588-5599). The role of rs1805407 in cell response to various drugs was investigated. The NCI-60 […]™ database (Reinhold W C, et al. (2012) Cancer Res 72(14):3499-3511) contains the response of 60 cell lines to ˜50,000 compounds. It was evaluated whether drugs affect differentially the cell lines that have at least one copy of rs1805407 (C/T or C/C) vs wild type (T/T).
SNP imputation on TCGA samples and NCI-60 cell lines: NCI-60 data were obtained from Cell Miner in June 2013 (discover.nci_nih.gov/cellminer/). For those cell lines or TCGA samples for which the identity of SNP rs1805407 was not available we used imputation to infer its identity. Using SNAP (17) we found 51 SNPs to be in perfect linkage disequilibrium (LD) with rs1805407 (R^2=1). Of these, 9 variants were covered by the Affymetrix SNP Array 6.0 used by the TCGA. To determine the rs1805407 genotype in TCGA samples birdseed calls (Korn J M, et al. (2008) Nature genetics 40(10):1253-126) from Affymetrix Genome-Wide Human SNP Array 6.0 were used. Only samples with a birdseed confidence less than 0.1 or where all 9 SNPs in perfect LD agreed with the birdseed call were used.

[2] = tested on: SW620; assay: MTT cell proliferation assay, MMS alone or with ABT-888; type: cell-based; conditions: Homo sapiens, SW-620, SW620 colon, PARP1/SNP T/T, MMS alone, 72 h, mean (±SD)
Excerpt: (§1) PARP1 cell proliferation and drug interaction assays: RPMI 1640 and Dulbecco's modified Eagle medium (DMEM) with L-Glutamine, cell culture media were purchased from Cellgro (Mediatech, Inc.). Heat-inactivated Foundation Fetal bovine serum (FBS) was purchased from Gemini bio-products. The alkylating agent, methyl methanesulfonate (MMS) was purchased from Sigma. The PARPi veliparib (ABT-888, Abbott Laboratories, Abbott Park, Ill., USA) was used in the cell proliferation assays. The ABT-888 used in the drug interaction assays was purchased from Selleck Chemicals LLC (Huston, Tex., USA). MMS is an alkylating agent that results in DNA damage at the same bases as dacarbazine and temozolomide and has been used extensively as an alternative in the laboratory setting. ABT-888 was dissolved in dimethyl sulfoxide (DMSO) to a stock solution of 10 mM. A 10 μM working solution was then prepared in PBS for subsequent serial dilutions.
(§2) The cytotoxic effect of the PARP inhibitor veliparib (ABT-888) and the alkylating agent, MMS was assessed using the MTT colorimetric dye reduction assay, according to the manufacturer's instructions (TACS® MTT Cell Proliferation Assay (MTT-CPA) from Trevigen, Inc.). MTT assay was used for each cell line to determine the half-maximal (50%) inhibitory concentration (IC50) values of MMS alone or in combination with ABT-888. Briefly, cells were seeded in triplicates in 96 wells at appropriate cell density (optimized for each individual cell line to have exponentially growing cells during the course of the assay), in their regular culture medium (DMEM with L-Glutamine from Cellgro (Mediatech, Inc.)). After 24 h, the medium was aspirated and the cells were incubated with increasing concentrations of MMS alone (0 to 1 mM) or in the presence of a fixed concentration (10 nM final) of ABT-888 (six replicates for each combination treatment) for 72 h at 37° C. Then, 10 μl of MTT Reagent was added to each well and the plates were incubated for another 4 h at 37° C. in the dark. In each well, 100 μl of Detergent Reagent was then added and incubated at 37° C. until complete solubilization of formazan crystals.
(§3) In single drug treatment experiments (MMS alone), drug-free controls containing 0.5% DMSO were included. In drug combination experiments with increasing concentrations of MMS, the samples with PARPi alone (fixed concentration of 10 nM of ABT-888), were used as controls. All control values were normalized to 100%. Cell viability was measured by reading the absorbance at 570 nm using a Tecan (Safire 2) microplate reader. Reading was converted to the percentage of the controls. The values obtained for each of the triplicates were averaged, and IC50 values were defined as the concentrations of drug(s) that inhibited growth by 50% relative to controls. The data from the MTT assay were expressed as mean IC50±standard deviation (SD). The IC50 of ABT-888, MMS and linear regression analysis were computed by […] Prism 5.0 program ([…] Software, Inc., San Diego, Calif.). For each cell line, the P-value was calculated using the Student t-test (two-tailed, paired) to compare the IC50 means of each treatment group (MMS alone or MMS+ABT-888).

[3] = tested on: A2780; assay: as above; type: cell-based; conditions: Homo sapiens, A2780 ovarian, PARP1/SNP C/T, MMS alone, 72 h, mean (±SD)
Excerpt: as §1, §2, §3

[4] = tested on: A549; assay: as above; type: cell-based; conditions: Homo sapiens, A549 lung, PARP1/SNP C/T, MMS alone, 72 h, mean (±SD)
Excerpt: as §1, §2, §3

[5] = tested on: MCF-7; assay: as above; type: cell-based; conditions: Homo sapiens, MCF7, MCF-7 breast, PARP1/SNP C/T, MMS alone, 72 h, mean (±SD)
Excerpt: as §1, §2, §3

[6] = tested on: A375; assay: as above; type: cell-based; conditions: Homo sapiens, A-375, A375 melanoma, PARP1/SNP T/T, MMS alone, 72 h, mean (±SD)
Excerpt: as §1, §2, §3

[7] = tested on: H-522; assay: as above; type: cell-based; conditions: Homo sapiens, NCI-H522, H-522 lung, PARP1/SNP T/T, MMS alone, 72 h, mean (±SD)
Excerpt: as §1, §2, §3

[8] = tested on: FEMX; assay: as above; type: cell-based; conditions: Homo sapiens, Fem-X, FEMX melanoma, PARP1/SNP T/T, MMS alone, 72 h, mean (±SD)
Excerpt: as §1, §2, §3

[9] = tested on: MDA-MB-231; assay: as above; type: cell-based; conditions: Homo sapiens, MDA-MB-231 breast, PARP1/SNP C/T, MMS alone, 72 h, mean (±SD)
Excerpt: as §1, §2, §3

[10] = tested on: M14; assay: as above; type: cell-based; conditions: Homo sapiens, M14 melanoma, PARP1/SNP C/T, MMS alone, 72 h, mean (±SD)
Excerpt: as §1, §2, §3

[11] = tested on: metastatic melanoma patients; assay: Response to TMZ treatment in metastatic melanoma patients by rs1805407 genotype; type: in vivo, human; conditions: all 21 patients that had the SNP rs1805407 (C/T or C/C)
Excerpt: The melanoma dataset consisted of whole genome gene expression, microRNA expression, DNA methylation, and data from the selected SNP panel. MGM-Learn was used to learn a network over the top 1000 features most correlated (pairwise) with “response” to treatment clinical variable, a binary variable indicating response/no response to temozolomide (TMZ) treatment dichotomized at presence of a response or stability of disease at 4 months of therapy. The 1,000 most correlated features in the input dataset included 557 mRNA expression probes, 425 methylation probes, 14 miRNA probes and 4 SNPs. […] The largest interconnected output network included 20 features connected to the response variable in our initial (undirected) learned network (FIG. 2A). It was emphasized that these features were connected to the response variable not only because they have high pairwise correlation with it (FIG. 2B), but also because they are dependent on response even when conditioned on all other variables included in the input. In this sense, they represent direct (causal) interactions and not simple biomarkers. From the 20 features initially connected to response, 15 were left connected after causal filtering (FIG. 2A, black lines). […]
Melanoma study design: Using a retrospective cohort study design, 69 patients with metastatic melanoma who were treated with alkylator-based chemotherapy were evaluated. […]

O=NN(CCCl)C(=O)NCCCl [Carmustine]
resistance or sensitivity of cell lines with at least one allele of rs1805407 vs wild type [1]: Increased resistance

O=P1(N(CCCl)CCCl)NCCCO1 (centres unmarked) [Cyclophosphamide]
resistance or sensitivity of cell lines with at least one allele of rs1805407 vs wild type [1]: Increased resistance

CC1=C(CO)C2=C(C)C3(CC3)[C@@](C)(O)C(=O)C2=C1 [Irofulven, Hydroxymethylacylfulvene]
resistance or sensitivity of cell lines with at least one allele of rs1805407 vs wild type [1]: Increased sensitivity

COS(C)(=O)=O [MMS, methyl methanesulfonate]
IC50 [2]: 299 µM
IC50 [3]: 190 µM
IC50 [4]: 255 µM
IC50 [5]: 193 µM
IC50 [6]: 306 µM
IC50 [7]: 578 µM
IC50 [8]: 166 µM
IC50 [9]: 260 µM
IC50 [10]: 521 µM

Cn1nnc2c(C(N)=O)ncn2c1=O [TMZ, temozolomide]
response to TMZ treatment [11]: no response

O=C(c1cc(Cc2n[nH]c(=O)c3ccccc23)ccc1F)N1CCN(C(=O)C2CC2)CC1 [olaparib]
resistance or sensitivity of cell lines with at least one allele of rs1805407 vs wild type [1]: slight increase in sensitivity
